Laboratory results reported in US9828343B2, “Histone demethylase inhibitors” (Celgene Quanticel Research, Inc., priority 2012, dated 2017).

Molecular target: JMJD2C (Homo sapiens (Human), UniProt Q9H3R0)
Assay: JMJD2C TR-FRET in vitro enzyme inhibition assay
Format: biochemical
Details: 0.3 nM JMJD2C, H3K9me3-biotin peptide, 2 μM alpha-ketoglutaric acid
From the text: This assay determines the ability of a test compound to inhibit Jarid1A, Jarid1B, and JMJD2C demethylase activity. Baculovirus expressed Jarid1A (GenBank Accession #NM_001042603, AA1-1090) was purchased from BPS Bioscience (Cat#50110). Baculovirus expressed Jarid1B (GenBank Accession #NM_006618, AA 2-751) was purchased from BPS Bioscience (Cat #50121) or custom made by MolecularThroughput. Baculovirus-expressed JMJD2C (GenBank Accession #BC143571, AA 2-372) was purchased from BPS Bioscience (Cat#50105).
The ability of test compounds to inhibit the activity of JMJD2C was determined in 384-well plate format under the following reaction conditions: 0.3 nM JMJD2C, 300 nM H3K9me3-biotin labeled peptide (Anaspec cat #64360), 2 μM alpha-ketoglutaric acid in assay buffer of 50 mM HEPES, pH7.3, 0.005% Brij35, 0.5 mM TCEP, 0.2 mg/ml BSA, 50 μM sodium L-ascorbate, and 2 μM ammonium iron(II) sulfate. Reaction product was determined quantitatively by TR-FRET after the addition of detection reagent Phycolink Streptavidin-allophycocyanin (Prozyme) and Europium-anti-di-methylated histone H3 lysine 9 (H3K9me2) antibody (PerkinElmer) in the presence of 5 mM EDTA in LANCE detection buffer (PerkinElmer) at a final concentration of 50 nM and 1 nM, respectively. […]

Sequence of JMJD2C (Q9H3R0 2-372): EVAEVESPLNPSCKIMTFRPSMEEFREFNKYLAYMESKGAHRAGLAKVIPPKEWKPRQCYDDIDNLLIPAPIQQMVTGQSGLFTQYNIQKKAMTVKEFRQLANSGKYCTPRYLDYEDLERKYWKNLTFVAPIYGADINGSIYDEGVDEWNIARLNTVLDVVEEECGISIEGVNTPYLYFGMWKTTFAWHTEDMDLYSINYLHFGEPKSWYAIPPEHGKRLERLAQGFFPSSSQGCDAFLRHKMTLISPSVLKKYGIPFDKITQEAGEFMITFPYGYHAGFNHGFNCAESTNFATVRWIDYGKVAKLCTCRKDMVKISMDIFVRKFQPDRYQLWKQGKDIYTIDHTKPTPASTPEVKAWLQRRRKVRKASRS

Row | Molecule | IC50
1 | 3-{[(6-fluoro-3,4-dihydro-2H-chromen-4-yl)methyl]amino}pyridine-4-carboxylic acid [Example 65] | < 100 nM
2 | O=C(O)c1ccncc1NCC1(O)CCCc2cc(Cl)ccc21 (centres unmarked) [Example 68, 3-{[(6-chloro-1-hydroxy-1,2,3,4-tetrahydronaphthalen-1-yl)methyl]amino}pyridine-4-carboxylic acid] | 100 to 1000 nM
